Measurements taken from ChEMBL document CHEMBL4699582, “Discovery of OATD-01, a First-in-Class Chitinase Inhibitor as Potential New Therapeutics for Idiopathic Pulmonary Fibrosis” (J Med Chem, 2020).
Active and inactive are the calls of the source. The calls are words filed in the database; no cut-off is given here.

Assays:
[1] = molecular target: ATP-binding cassette sub-family C member 2 (Homo sapiens, UniProt Q92887); assay: Inhibition of MRP2 (unknown origin) at 1 to 10 uM; settings: dose 1-10 µM
[2] = AUC (0 to 24 hrs) in Beagle dog at 10 mg/kg, po administered as single dose by LC-MS/MS analysis; format: ADME, organism-based, Canis lupus familiaris; parameters: time < 24 hr, route oral, dose 10 mg/kg; settings: in vivo
[3] = Volume of distribution at steady state in Sprague-Dawley rat at 2 mg/kg, iv administered as single bolus dose measured upto 24 hrs by LC-MS/MS analysis; format: ADME, organism-based; settings: in vivo, read-out: Vdss
Chitotriosidase-1 = Chitotriosidase-1 (Mus musculus, UniProt Q9D7Q1); assay: biochemical
Description: Inhibition of recombinant full-length C-terminal his-tagged mouse CHIT1 expressed in CHO-K1 cells assessed as reduction in chitinolytic activity using 4-methylumbelliferyl-beta-D-N,N',N"-triacetylchitotrioside as substrate after 60 mins by fluorometric assay

[4] = Dose normalized AUC (0 to 24 hrs) in Beagle dog at 3 mg/kg, iv administered as single bolus dose by LC-MS/MS analysis; format: ADME, organism-based, Canis lupus familiaris; settings: in vivo
[5] = molecular target: Ileal sodium/bile acid cotransporter (Homo sapiens, UniProt Q12908); assay: Inhibition of ASBT (unknown origin) at 1 to 10 uM; settings: dose 1-10 µM
[6] = Dose normalized AUC (0 to 24 hrs) in Beagle dog at 10 mg/kg, po administered as single dose by LC-MS/MS analysis; format: ADME, organism-based, Canis lupus familiaris; settings: in vivo
[7] = Dose normalized Cmax in Balb/c mouse at 10 mg/kg, po administered as single dose by LC-MS/MS analysis; format: ADME, organism-based; settings: in vivo
[8] = Drug uptake in C57BL/6N mouse plasma at 30 mg/kg, po qd administered via gavage measured 24 hrs post dose; format: ADME, organism-based; settings: in vivo
Mus musculus [9] = organism: Mus musculus; settings: C57BL/6N, dose 30.0 mg/kg
Cytochrome P450 1A2 = Cytochrome P450 1A2 (Homo sapiens, UniProt P05177); assay: Inhibition of CYP1A2 (unknown origin); format: ADME
[10] = Elimination half-life in Sprague-Dawley rat at 2 mg/kg, iv administered as single bolus dose by LC-MS/MS analysis; format: ADME, organism-based; settings: in vivo, read-out: beta t1/2 (converted)
[11] = Oral bioavailability in Beagle dog at 10 mg/kg, administered as single dose by LC-MS/MS analysis; format: ADME, organism-based, Canis lupus familiaris; settings: in vivo
[12] = Dose normalized AUC (0 to 24 hrs) in Sprague-Dawley rat at 2 mg/kg, iv administered as single bolus dose by LC-MS/MS analysis; format: ADME, organism-based; settings: in vivo
[13] = Clearance (0 to 24 hrs) in Beagle dog at 3 mg/kg, iv administered as single bolus dose by LC-MS/MS analysis; format: ADME, organism-based, Canis lupus familiaris; settings: in vivo
[14] = Oral bioavailability in Balb/c mouse at 10 mg/kg, administered as single dose by LC-MS/MS analysis; format: ADME, organism-based; settings: in vivo
[15] = Tmax in Balb/c mouse at 10 mg/kg, po administered as single dose by LC-MS/MS analysis; format: ADME, organism-based; settings: in vivo
[16] = Dose normalized Cmax in Beagle dog at 10 mg/kg, po administered as single dose by LC-MS/MS analysis; format: ADME, organism-based, Canis lupus familiaris; settings: in vivo
Cytochrome P450 2B6 = Cytochrome P450 2B6 (Homo sapiens, UniProt P20813); assay: Inhibition of CYP2B6 (unknown origin); format: ADME
[17] = AUC (0 to 24 hrs) in Beagle dog at 3 mg/kg, iv administered as single bolus dose by LC-MS/MS analysis; format: ADME, organism-based, Canis lupus familiaris; parameters: time < 24 hr, route intravenous, dose 3 mg/kg; settings: in vivo
[18] = Dose normalized AUC (0 to 24 hrs) in Sprague-Dawley rat at 6 mg/kg, po administered as single dose by LC-MS/MS analysis; format: ADME, organism-based; settings: in vivo
[19] = Initial plasma concentration in Balb/c mouse at 3 mg/kg, iv administered as single bolus dose by LC-MS/MS analysis; format: ADME, organism-based
[20] = molecular target: Acidic mammalian chitinase (Mus musculus, UniProt Q91XA9); assay: Inhibition of full-length C-terminal his-tagged mouse AMCase expressed in expressed in CHO-K1 cells assessed as reduction in chitinolytic activity using 4-methylumbelliferyl-beta-D-N,N'-diacetylchitobioside hydrate as substrate after 60 mins by fluorometric assay; format: cell-based
[21] = Dose normalized AUC (0 to 24 hrs) in Balb/c mouse at 10 mg/kg, po administered as single dose by LC-MS/MS analysis; format: ADME, organism-based; settings: in vivo
Cytochrome P450 3A4 = Cytochrome P450 3A4 (Homo sapiens, UniProt P08684); assay: Inhibition of CYP3A4 (unknown origin); format: ADME
[22] = Cmax in Balb/c mouse at 10 mg/kg, po administered as single dose by LC-MS/MS analysis; format: ADME, organism-based; parameters: route oral, dose 10 mg/kg; settings: in vivo
[23] = molecular target: Broad substrate specificity ATP-binding cassette transporter ABCG2 (Homo sapiens, UniProt Q9UNQ0); assay: Inhibition of BCRP (unknown origin) at 1 to 10 uM; settings: dose 1-10 µM
Mus musculus [24] = organism: Mus musculus; settings: C57BL/6N, dose 30.0 mg/kg; remark: listed apart in the source
[25] = molecular target: Multidrug resistance-associated protein 1 (Homo sapiens, UniProt P33527); assay: Inhibition of MRP1 (unknown origin) at 1 to 10 uM; settings: dose 1-10 µM
[26] = Clearance (0 to infinity) in Balb/c mouse at 3 mg/kg, iv administered as single bolus dose by LC-MS/MS analysis; format: ADME, organism-based; settings: in vivo
[27] = AUC (0 to 24 hrs) in Sprague-Dawley rat at 6 mg/kg, po administered as single dose by LC-MS/MS analysis; format: ADME, organism-based; parameters: time < 24 hr, route oral, dose 6 mg/kg; settings: in vivo
[28] = Cmax in Beagle dog at 10 mg/kg, po administered as single dose by LC-MS/MS analysis; format: ADME, organism-based, Canis lupus familiaris; parameters: route oral, dose 10 mg/kg; settings: in vivo
[29] = molecular target: Solute carrier organic anion transporter family member 1B1 (Homo sapiens, UniProt Q9Y6L6); assay: Inhibition of OATP1B1 (unknown origin) at 1 to 10 uM; settings: dose 1-10 µM
Cytochrome P450 2D6 = Cytochrome P450 2D6 (Homo sapiens, UniProt P10635); assay: Inhibition of CYP2D6 (unknown origin); format: ADME
[30] = Elimination half-life in Sprague-Dawley rat at 6 mg/kg, po administered as single dose by LC-MS/MS analysis; format: ADME, organism-based; settings: in vivo, read-out: beta t1/2 (converted)
[31] = molecular target: Solute carrier family 22 member 6 (Homo sapiens, UniProt Q4U2R8); assay: Inhibition of OAT1 (unknown origin) at 1 to 10 uM; settings: dose 1-10 µM
[32] = molecular target: Solute carrier family 22 member 2 (Homo sapiens, UniProt O15244); assay: Inhibition of OCT2 (unknown origin) at 1 to 10 uM
[33] = Initial plasma concentration in Sprague-Dawley rat at 2 mg/kg, iv administered as single bolus dose by LC-MS/MS analysis; format: ADME, organism-based
[34] = molecular target: Voltage-gated inwardly rectifying potassium channel KCNH2 (Homo sapiens, UniProt Q12809); assay: Inhibition of tracer red binding to human ERG expressed in HEK293 cell membranes measured after 2 to 6 hrs by fluorescence polarization assay
Mus musculus [35] = organism: Mus musculus; settings: C57BL/6N, dose 30.0 mg/kg; remark: listed apart in the source
[36] = Drug uptake in C57BL/6N mouse lung at 30 mg/kg, po bid administered via gavage measured 24 hrs post dose; format: ADME, organism-based; settings: in vivo
[37] = Dose normalized Cmax in Sprague-Dawley rat at 6 mg/kg, po administered as single dose by LC-MS/MS analysis; format: ADME, organism-based; settings: in vivo
[38] = Cmax in Sprague-Dawley rat at 6 mg/kg, po administered as single dose by LC-MS/MS analysis; format: ADME, organism-based; parameters: route oral, dose 6 mg/kg; settings: in vivo

Acidic mammalian chitinase, sequence (Q91XA9 whole entry): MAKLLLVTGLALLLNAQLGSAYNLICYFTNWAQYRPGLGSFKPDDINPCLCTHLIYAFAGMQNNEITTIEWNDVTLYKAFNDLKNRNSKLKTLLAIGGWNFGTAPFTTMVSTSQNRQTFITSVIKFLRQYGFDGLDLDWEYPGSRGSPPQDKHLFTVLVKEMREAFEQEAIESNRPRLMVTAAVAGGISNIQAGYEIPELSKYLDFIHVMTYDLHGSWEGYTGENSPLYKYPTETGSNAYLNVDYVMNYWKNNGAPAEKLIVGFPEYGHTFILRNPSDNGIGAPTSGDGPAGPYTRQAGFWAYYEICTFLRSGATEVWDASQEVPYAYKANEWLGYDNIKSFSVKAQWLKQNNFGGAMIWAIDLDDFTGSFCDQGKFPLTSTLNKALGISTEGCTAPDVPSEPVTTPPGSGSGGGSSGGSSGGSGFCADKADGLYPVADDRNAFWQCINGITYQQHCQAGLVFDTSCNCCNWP
Chitotriosidase-1, sequence (Q9D7Q1 whole entry): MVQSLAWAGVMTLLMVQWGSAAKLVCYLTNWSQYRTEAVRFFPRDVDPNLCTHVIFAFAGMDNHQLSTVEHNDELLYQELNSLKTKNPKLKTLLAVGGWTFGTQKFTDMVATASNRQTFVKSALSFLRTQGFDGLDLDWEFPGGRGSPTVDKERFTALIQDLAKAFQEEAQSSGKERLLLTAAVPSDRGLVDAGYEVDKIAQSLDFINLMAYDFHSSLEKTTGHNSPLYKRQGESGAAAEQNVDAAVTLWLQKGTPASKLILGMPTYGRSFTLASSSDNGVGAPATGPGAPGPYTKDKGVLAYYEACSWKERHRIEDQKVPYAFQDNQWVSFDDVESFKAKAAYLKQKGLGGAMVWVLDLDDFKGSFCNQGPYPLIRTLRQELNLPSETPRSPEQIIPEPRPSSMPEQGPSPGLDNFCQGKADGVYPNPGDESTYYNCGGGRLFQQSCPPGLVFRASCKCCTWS
Solute carrier organic anion transporter family member 1B1, sequence (Q9Y6L6 whole entry): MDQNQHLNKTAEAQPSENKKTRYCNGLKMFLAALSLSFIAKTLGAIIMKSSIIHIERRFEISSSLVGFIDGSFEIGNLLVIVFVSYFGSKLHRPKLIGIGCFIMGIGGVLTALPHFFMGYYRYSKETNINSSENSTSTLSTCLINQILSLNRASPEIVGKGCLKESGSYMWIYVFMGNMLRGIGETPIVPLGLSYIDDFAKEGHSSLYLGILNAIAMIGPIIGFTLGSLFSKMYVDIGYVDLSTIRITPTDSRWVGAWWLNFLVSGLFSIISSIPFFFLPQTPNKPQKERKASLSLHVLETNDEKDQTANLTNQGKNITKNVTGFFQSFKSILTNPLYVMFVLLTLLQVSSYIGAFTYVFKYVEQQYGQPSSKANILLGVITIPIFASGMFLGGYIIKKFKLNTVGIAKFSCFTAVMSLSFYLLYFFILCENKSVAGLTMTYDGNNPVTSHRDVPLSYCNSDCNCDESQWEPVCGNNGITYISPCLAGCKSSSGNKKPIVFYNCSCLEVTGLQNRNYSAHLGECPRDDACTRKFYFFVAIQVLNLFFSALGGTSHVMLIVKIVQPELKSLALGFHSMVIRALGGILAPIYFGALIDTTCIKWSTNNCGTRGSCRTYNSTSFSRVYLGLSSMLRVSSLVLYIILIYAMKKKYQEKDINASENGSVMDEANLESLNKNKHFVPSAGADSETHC
ATP-binding cassette sub-family C member 2, sequence (Q92887 whole entry): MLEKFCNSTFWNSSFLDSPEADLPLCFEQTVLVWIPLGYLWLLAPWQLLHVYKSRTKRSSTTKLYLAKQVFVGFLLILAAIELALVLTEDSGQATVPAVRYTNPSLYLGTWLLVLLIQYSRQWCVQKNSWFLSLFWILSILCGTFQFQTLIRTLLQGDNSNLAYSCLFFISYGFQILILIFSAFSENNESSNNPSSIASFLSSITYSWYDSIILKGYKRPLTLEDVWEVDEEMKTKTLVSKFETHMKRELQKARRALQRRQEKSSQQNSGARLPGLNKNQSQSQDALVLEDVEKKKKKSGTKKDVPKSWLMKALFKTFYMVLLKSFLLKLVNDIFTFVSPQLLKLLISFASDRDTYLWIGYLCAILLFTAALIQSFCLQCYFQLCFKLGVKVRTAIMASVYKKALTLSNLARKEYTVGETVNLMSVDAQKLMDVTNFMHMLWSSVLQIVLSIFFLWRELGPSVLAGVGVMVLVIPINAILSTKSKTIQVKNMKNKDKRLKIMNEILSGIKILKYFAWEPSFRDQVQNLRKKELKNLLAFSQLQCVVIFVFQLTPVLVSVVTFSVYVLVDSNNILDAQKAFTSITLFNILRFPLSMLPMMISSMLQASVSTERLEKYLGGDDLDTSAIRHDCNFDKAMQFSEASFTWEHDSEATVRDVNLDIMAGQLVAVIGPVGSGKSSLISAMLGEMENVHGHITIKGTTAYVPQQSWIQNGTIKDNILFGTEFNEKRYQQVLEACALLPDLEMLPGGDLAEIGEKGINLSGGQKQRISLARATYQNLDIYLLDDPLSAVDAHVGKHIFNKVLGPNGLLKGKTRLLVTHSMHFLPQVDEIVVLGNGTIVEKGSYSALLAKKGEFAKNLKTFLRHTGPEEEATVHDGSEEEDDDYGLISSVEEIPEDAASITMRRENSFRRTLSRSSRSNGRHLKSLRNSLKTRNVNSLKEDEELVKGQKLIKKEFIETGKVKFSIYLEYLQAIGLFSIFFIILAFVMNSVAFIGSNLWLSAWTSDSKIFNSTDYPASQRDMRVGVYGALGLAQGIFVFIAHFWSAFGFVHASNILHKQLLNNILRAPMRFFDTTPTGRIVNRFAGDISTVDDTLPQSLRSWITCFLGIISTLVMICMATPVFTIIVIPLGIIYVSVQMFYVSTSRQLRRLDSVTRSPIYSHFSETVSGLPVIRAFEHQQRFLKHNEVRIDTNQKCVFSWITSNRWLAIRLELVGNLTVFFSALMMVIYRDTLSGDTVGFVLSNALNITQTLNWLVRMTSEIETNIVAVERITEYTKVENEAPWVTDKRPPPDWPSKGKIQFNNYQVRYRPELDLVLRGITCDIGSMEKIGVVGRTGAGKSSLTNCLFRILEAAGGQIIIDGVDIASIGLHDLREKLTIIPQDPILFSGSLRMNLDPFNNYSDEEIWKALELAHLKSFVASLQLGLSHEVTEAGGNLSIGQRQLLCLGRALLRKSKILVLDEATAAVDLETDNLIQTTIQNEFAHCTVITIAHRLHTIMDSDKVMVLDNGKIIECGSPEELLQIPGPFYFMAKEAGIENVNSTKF
Solute carrier family 22 member 6, sequence (Q4U2R8 whole entry): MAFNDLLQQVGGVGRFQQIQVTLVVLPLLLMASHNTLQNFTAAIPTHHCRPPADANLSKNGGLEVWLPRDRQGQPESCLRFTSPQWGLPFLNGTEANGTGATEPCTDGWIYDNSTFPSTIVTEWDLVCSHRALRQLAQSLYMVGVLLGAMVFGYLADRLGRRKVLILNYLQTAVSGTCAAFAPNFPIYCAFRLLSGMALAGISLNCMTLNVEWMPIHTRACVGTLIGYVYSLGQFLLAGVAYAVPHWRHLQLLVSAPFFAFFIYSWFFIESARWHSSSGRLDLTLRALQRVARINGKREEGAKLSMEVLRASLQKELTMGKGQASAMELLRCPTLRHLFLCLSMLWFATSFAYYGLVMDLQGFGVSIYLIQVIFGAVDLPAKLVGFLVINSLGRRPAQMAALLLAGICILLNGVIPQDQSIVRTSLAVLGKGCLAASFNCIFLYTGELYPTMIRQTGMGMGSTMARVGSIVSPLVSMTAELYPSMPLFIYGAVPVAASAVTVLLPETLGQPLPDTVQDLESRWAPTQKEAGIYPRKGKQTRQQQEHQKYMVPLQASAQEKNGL
Broad substrate specificity ATP-binding cassette transporter ABCG2, sequence (Q9UNQ0 whole entry): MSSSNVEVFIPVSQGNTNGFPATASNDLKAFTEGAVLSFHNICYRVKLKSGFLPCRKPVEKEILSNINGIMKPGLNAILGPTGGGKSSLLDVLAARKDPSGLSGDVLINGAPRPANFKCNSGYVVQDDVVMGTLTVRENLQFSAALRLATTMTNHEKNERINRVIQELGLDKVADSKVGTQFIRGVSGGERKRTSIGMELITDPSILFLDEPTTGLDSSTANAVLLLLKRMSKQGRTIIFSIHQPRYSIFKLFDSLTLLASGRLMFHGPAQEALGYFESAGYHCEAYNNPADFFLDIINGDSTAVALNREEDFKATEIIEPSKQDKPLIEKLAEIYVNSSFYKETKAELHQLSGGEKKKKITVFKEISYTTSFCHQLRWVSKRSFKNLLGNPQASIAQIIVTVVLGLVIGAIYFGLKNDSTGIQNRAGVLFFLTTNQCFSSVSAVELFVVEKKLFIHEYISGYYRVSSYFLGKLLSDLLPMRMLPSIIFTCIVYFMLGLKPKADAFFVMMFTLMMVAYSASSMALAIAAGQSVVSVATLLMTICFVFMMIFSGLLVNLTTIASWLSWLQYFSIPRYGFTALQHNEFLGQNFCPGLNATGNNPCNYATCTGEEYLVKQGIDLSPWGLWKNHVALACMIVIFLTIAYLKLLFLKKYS
Cytochrome P450 2B6, sequence (P20813 whole entry): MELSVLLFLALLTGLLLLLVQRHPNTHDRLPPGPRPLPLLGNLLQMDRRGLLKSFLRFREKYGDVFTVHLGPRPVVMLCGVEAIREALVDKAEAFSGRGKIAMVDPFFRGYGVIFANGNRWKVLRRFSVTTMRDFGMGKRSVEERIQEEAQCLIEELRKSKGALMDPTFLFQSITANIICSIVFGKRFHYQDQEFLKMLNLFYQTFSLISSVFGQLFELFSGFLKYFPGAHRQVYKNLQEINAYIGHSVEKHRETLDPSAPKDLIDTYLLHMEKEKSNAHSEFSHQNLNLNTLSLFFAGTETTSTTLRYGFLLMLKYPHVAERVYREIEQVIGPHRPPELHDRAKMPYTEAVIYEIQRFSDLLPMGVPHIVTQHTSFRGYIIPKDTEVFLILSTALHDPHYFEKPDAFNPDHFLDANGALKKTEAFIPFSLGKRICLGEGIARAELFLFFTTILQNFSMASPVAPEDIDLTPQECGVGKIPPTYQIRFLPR

Q: With `C[C@H]1CN(C2CCN(c3nc(N)n[nH]3)CC2)[C@@H](Cc2ccc(Cl)cc2)CO1` [5-(4-((2S,5S)-5-(4-CHLOROBENZYL)-2-METHYLMORPHOLINO)PIPERIDIN-1-YL)-1H-1,2,4-TRIAZOL-3-AMINE] as the molecule, how does the “inhibition (INH)” value [1] read?
A: The value was “Not Active”.

Q: What about the AUC(0-t) at 24 h [2] of the same molecule?
A: The AUC(0-t) at 24 h was 94100 ng·h/mL.

Q: And the Vd [3]?
A: The Vd was 1.82 L/kg.

Q: What about the IC50 (Chitotriosidase-1) of the same molecule?
A: The IC50 was 28 nM.

Q: What about the Ki (Chitotriosidase-1) of the same molecule?
A: Its Ki is 26 nM.

Q: And the AUC/dose [4]?
A: The AUC/dose was 10.34 kg·mg·h/L/mg.

Q: And the “inhibition (INH)” value [5]?
A: Its value is “Not Active”.

Q: And the AUC/dose [6]?
A: Its AUC/dose is 9.41 kg·mg·h/L/mg.

Q: What about the Cmax/dose [7] of the same molecule?
A: The Cmax/dose was 0.34 kg.mg/L.mL.

Q: And the Drug uptake [8]?
A: Its Drug uptake is “Active”.

Q: What about the inhibition (Mus musculus [9]) of the same molecule?
A: Its inhibition is “Active”.

Q: What about the “inhibition (INH)” value (Cytochrome P450 1A2) of the same molecule?
A: The value was “Not Active”.

Q: And the half-life [10]?
A: The half-life was 4.49 h.

Q: And the bioavailability [11]?
A: Its bioavailability is 91.4%.

Q: What about the AUC/dose [12] of the same molecule?
A: Its AUC/dose is 2.78 kg·mg·h/L/mg.

Q: What about the clearance [13] of the same molecule?
A: Its clearance is 1.67 mL/min/kg.

Q: And the bioavailability [14]?
A: The bioavailability was 77.4%.

Q: What about the Tmax [15] of the same molecule?
A: The Tmax was 2 h.

Q: And the Cmax/dose [16]?
A: Its Cmax/dose is 0.76 kg.mg/L.mL.

Q: And the “inhibition (INH)” value (Cytochrome P450 2B6)?
A: The value was “Not Active”.

Q: What about the AUC(0-t) at 24 h [17] of the same molecule?
A: The AUC(0-t) at 24 h was 31000 ng·h/mL.

Q: What about the AUC/dose [18] of the same molecule?
A: The AUC/dose was 3.38 kg·mg·h/L/mg.

Q: And the C0 [19]?
A: Its C0 is 3970 ng/mL.

Q: And the IC50 [20]?
A: Its IC50 is 7.8 nM.

Q: And the Ki [20]?
A: Its Ki is 5.7 nM.

Q: And the AUC/dose [21]?
A: Its AUC/dose is 2.22 kg·mg·h/L/mg.

Q: And the “inhibition (INH)” value (Cytochrome P450 3A4)?
A: Its value is “Not Active”.

Q: And the Cmax [22]?
A: Its Cmax is 3420 ng/mL.

Q: What about the “inhibition (INH)” value [23] of the same molecule?
A: Its value is “Not Active”.

Q: And the inhibition (Mus musculus [24])?
A: Its inhibition is “Active”.

Q: And the “inhibition (INH)” value [25]?
A: The value was “Not Active”.

Q: And the clearance [26]?
A: Its clearance is 5.83 mL/min/kg.

Q: What about the AUC(0-t) at 24 h [27] of the same molecule?
A: The AUC(0-t) at 24 h was 20300 ng·h/mL.

Q: And the Cmax [28]?
A: Its Cmax is 7640 ng/mL.

Q: And the “inhibition (INH)” value [29]?
A: The value was “Not Active”.

Q: What about the “inhibition (INH)” value (Cytochrome P450 2D6) of the same molecule?
A: The value was “Not Active”.

Q: And the half-life [30]?
A: The half-life was 4.47 h.

Q: And the “inhibition (INH)” value [31]?
A: The value was “Not Active”.

Q: What about the “inhibition (INH)” value [32] of the same molecule?
A: The value was “Not Active”.

Q: And the C0 [33]?
A: The C0 was 1000 ng/mL.

Q: What about the IC50 [34] of the same molecule?
A: Its IC50 is 23000 nM.

Q: What about the inhibition (Mus musculus [35]) of the same molecule?
A: The inhibition was “Active”.

Q: What about the Drug uptake [36] of the same molecule?
A: The Drug uptake was “Active”.

Q: What about the Cmax/dose [37] of the same molecule?
A: The Cmax/dose was 0.37 kg.mg/L.mL.

Q: And the Cmax [38]?
A: Its Cmax is 2210 ng/mL.
